The values below come from paper PMC9450014, “The evaluation of ADME and pharmacokinetic properties of decoquinate derivatives for the treatment of malaria” (Frontiers in Pharmacology, 2022).

Where two headings read alike, the source gives them in different places.

Data set [1] can be described thus: Lipophilicity, 1-octanol/phosphate buffer pH 7.4 (LogD7.4). It is filed as physicochemical. As for the experimental part: Stock solutions ([…]) of compounds were diluted to 100 μM in 96-well deep-well plate containing 1-octanol and phosphate buffer at pH 7.4. The plate was agitated on an orbital shaker at 750 rpm for 2 h. The organic and buffer layers of each well were transferred separately to a new analysis plate. The samples were analysed with the HPLC-diode array detection as described for kinetic solubility. Samples from both layers were analysed to determine LogD7.4 values.

Data set [2] is described as follows: Passive permeability, parallel artificial membrane permeation assay (PAMPA). It is filed as in vitro ADME. Conditions: donor pH 6.5, acceptor pH 7.4, 4 h, read-out: Permeability (LogPapp) (converted). The method, then:
A parallel artificial membrane permeation assay (PAMPA) was used to assess the passive permeability of compounds with a 96-well MultiScreen filter plate ([…] pore size, Millipore). The filter plate was precoated with 5% hexadecane in hexane. Stock solutions of compounds were diluted to 1 mM in a donor buffer (pH 6.5). Lucifer yellow was added to the apical wells of the precoated MultiScreen plate containing compound donor solution. The donor buffer solutions were spiked with each test compound (1 mM). The acceptor-buffer solution was prepared by adding 10 μL DMSO to 990 μL acceptor buffer (pH 7.4) and 250 μL were added to the basolateral (acceptor) wells. The donor plate was carefully inserted into the acceptor plate and incubated at room temperature for 4 h. After the incubation period, 50 μL of samples from the acceptor plate were transferred to a round bottom 96-well plate, together with 30 μL of donor buffer for matrix matching. Theoretical equilibrium samples for each test compound were prepared by adding 150 μL of donor solutions to 250 μL acceptor solutions and left at room temperature. These theoretical equilibrium samples represent complete transfer of the compound into the donor well. For the theoretical equilibrium samples, 80 μL were added to the analysis plate. Lastly, 160 μL of the internal standard carbamazepine (0.1 μM) was added to all acceptor and equilibrium samples. A portion of the sample containing Lucifer yellow was analyzed on a BioRad iMark^TM Microplate Absorbance Reader (BioRad, Hercules, CA, United States; excitation 490 nm, emission 510–570 nm) to determine that P app was within the acceptable range (<50 nm/s). Samples were analysed using reverse phase Gemini NX-C18 column (5 μM, 2.1 mm × 50 mm) with a Shimadzu HPLC coupled with an AB Sciex 3200 Q TRAP MS). The Papp for each compound was determined using. C=VD × VA/(VD+VA) ×A×t where VA = volume of donor compartment (0.15 cm^3), VD = volume of acceptor compartment (0.25 cm^3), A = accessible filter area (0.24 cm^2) and t = incubation time (14,400 s). […]

A further data set is described as follows: Plasma stability. It is filed as in vitro ADME. Conditions: human plasma. As for the experimental part: Stock solutions of compounds in DMSO were used to spike pooled human plasma. Samples were transferred in duplicate to 6 different wells of a 96-deep well plate. An aliquot of each sample was immediately quenched with ice cold acetonitrile containing the internal standard carbamazepine (0.1 μM), after which the plate was incubated in a water bath (37°C for 1 h). Aliquots of samples were removed at 5, 15, 40, 60, and 180 min and quenched with ice cold acetonitrile. After samples of the final time point were precipitated, the supernatant was transferred to a round bottom 96-well plate for analysis by LC-MS/MS using a reverse phase Gemini NX-C18 column (5 μM, 2.1 mm × 50 mm) with a Shimadzu HPLC coupled with an AB Sciex 3200 Q TRAP MS). The peak area ratios were used to calculate the amount of parent compound remaining and t1/2 in plasma, using the following equations.
% Parent remaining % Parent= Normalised peak area of sample at timepoint/Normalised peak area of sample at t=0 x 100
Predicted t1/2 t1/2= −0.693/λ Where λ is the slope of the Ln % parent remaining vs. time curve.

Data set [3] in a line: Metabolic stability in human liver microsomes. The format is in vitro ADME. As for the experimental part: A 5-point metabolic stability assay in human and mouse liver microsomes were performed in duplicate in 96-well plates. Stock solution of RMB005, −059 and 060 prepared in DMSO were individually incubated at 37°C in mouse and pooled human liver microsomes (0.4 mg/mL). An aliquot was removed at 0 min and quenched with ice cold acetonitrile containing the internal standard carbamazepine (0.1 μM). The cofactor NADPH was added, and the reactions were subsequently stopped at time points 5, 10, 30, and 60 min by removal of an aliquot and quenching with ice cold acetonitrile containing the internal standard. The supernatant of all samples were analysed via LC-MS/MS analysis (reverse phase Gemini NX-C18 column and Shimadzu HPLC and AB Sciex 3200 Q TRAP MS). Calculation of in vitro t1/2, intrinsic clearance rate (CLint) and predicted in vivo clearance (CLH) was carried out using the following equations ([Obach 1999]). CLintClint= 0.693/t1/2(min) ×Volume of incubation (μL)/microsomal protein (μg) Where t1/2 is calculated in minutes.
Predicted in vivo CLH CLH=Q × fu(plasma)×CLint/fu(mic)/Q+ fu(plasma)× CLint/fu(mic) Where Q is the hepatic blood flow of mouse (90 mL/min/kg) or human (20.7 mL/min/kg). Fu(plasma) is the unbound drug fraction in the plasma and fu(mic) is the unbound fraction in the microsomes.
The equation below was used in the case of RMB059 and -060, where protein-binding data were not available. CLH=Q × CLint/Q+ CLint

In another data set the test system is Pf NF54. Conditions: ref Beteck et al., 2018, cited from earlier work.

For `CCCCCCCCCCOc1cc2c(=O)c(C(=O)NCCOCCO)c[nH]c2cc1OCC` [RMB005], the logD at 2 h in data set [1] worked out at 3.2. Besides, in data set [2], the Papp at 4 h, 1 mM was 0.501 ×10⁻⁶ cm/s. Further, the “Plasma stability (in words)” value in the data set “Plasma stability” is reported as “good plasma stability”; in “Plasma stability” (listed as RMB-005) it was “relatively stable”. Besides, the half-life in the data set “Plasma stability” (pooled plasma, 37°C) is > 2.5 h; in data set [3] (pooled liver microsomes, human liver microsomes, NADPH, read-out: Degradation half-life HLM), > 2.5 h. Besides, the CLint scaled in data set [3] (human, pooled liver microsomes, calculated from t1/2 in HLM, read-out: In vitro CLint HLM) is 4 mL/min/kg. In data set [3] (protein binding data included), the “Estimated in vivo CLH HLM” value is 12.6 mL/min/kg. Moreover, the IC50 in the data set on Pf NF54 (Pf NF54, read-out: NF54 IC50 (line in the PK figures, in vitro IC50 in the discussion)) was 40 nM; in the data set on Pf NF54 (read-out: IC50 against Pf NF54), 40.4 nM.

In general, logD refers to lipophilicity at a set pH, counting ionised and neutral species. In general, half-life refers to how long it takes for the measured level to halve. What is called IC50 is the concentration at which inhibition is half-maximal.
